These results are taken from patent publication US5747235A, “Silver halide light sensitive emulsion layer having enhanced photographic sensitivity” (Eastman Kodak Company, priority 1996, dated 1998).

Assay [1] can be described thus: Example 1: photographic speed and fog, 365 nm exposure, emulsion T-1. The note with it: undyed; for S365: control=100. The procedure:
This chemically sensitized emulsion was then used to prepare the experimental coating variations indicated in Table I. All of the experimental coating variations in Table I contained the hydroxybenzene 2,4-disulfocatechol (HB3) at a concentration of 13 mmole/mole Ag, added to the melt before the addition of any further addenda. The fragmentable electron donor compounds as indicated in Table I were added from an aqueous potassium bromide solution, or from a methanol solution, before additional water, gelatin, and surfactant were added to the emulsion melts.
(§1) For photographic evaluation, each of the coating strips was exposed for 0.1 sec to a 365 nm emission line of a Hg lamp filtered through a Kodak Wratten filter number 18A and a step wedge ranging in density from 0 to 4 density units in 0.2 density steps. The exposed film strips were developed for 6 min in Kodak Rapid X-ray Developer (KRX). S365, relative sensitivity at 365 nm, was evaluated at a density of 0.2 units above fog.

Assay [2] in a line: Example 3: spectral sensitivity, wedge spectrographic exposure, emulsion T-2. To be noted: dyed control=100. The procedure:
This emulsion was precipitated using deionized gelatin. […] The chemically sensitized emulsion was then used to prepare coatings containing the fragmentable two-electron donor compounds. All of the experimental coating variations in Table III contained the hydroxybenzene 2,4-disulfocatechol (HB3) at a concentration of 13 mmole/ mole Ag, added to the melt before the addition of any further addenda. Where present, the blue sensitizing dye D-I or the red sensitizing dye D-II were added from methanol solution to the emulsion at 40° C. after the chemical sensitization and disulfocatechol addition.
(§2) Additional testing was carried out to determine the response of the coatings described in Table III to a spectral exposure. Each of the coating strips was exposed for 0.1 sec on a wedge spectrographic instrument that covers the wavelength range from 400 to 750 nm. The instrument contains a tungsten light source and a step tablet ranging in density from 0 to 3 density units in 0.3 density steps. After developing exposed strips for 6 min in Kodak Rapid X-ray Developer (KRX), speed was read at 10 nm wavelength intervals at a density of 0.3 above fog. Correction for the instrument's variation in spectral irradiance with wavelength was done with a computer and a plot of log sensitivity vs. wavelength was generated. For this exposure, for each dye used, the relative sensitivity was set equal to 100 for the control coating with no fragmentable two-electron donor compound added.

Assay [3] in a line: Example 8: photographic speed and fog, 365 nm exposure, cubic emulsion C-1. Set-up: Fog: unit not given here. The note with it: for sensitivity increase: both undyed cubic emulsions (C-1 and C-2). As to the method:
as §1
(§3) Two cubic emulsions with uniform halide composition were precipitated using deionized gelatin. Emulsion C-1 was a AgErI emulsion with a 3% I content and a cubic edge length of 0.47 μm and emulsion C-2 was an AgBr emulsion with a cubic edge length of 0.52 μm. The emulsions were sulfur sensitized by adding 1,3-dicarboxymethyl-1,3-dimethyl-2-thiourea at 40° C.; the temperature was then raised to 60° C. at a rate of 5° C./3 min and the emulsions held for 20 min before cooling to 40° C. The amounts of the sulfur sensitizing compound used were 1.0×10^-5 mole/mole Ag for emulsion C-1, and 6.0×10^-6mole/mole Ag for emulsion C-2. These experimental coating variations contained the hydroxybenzene, 2,4-disulfocatechcol (HB3) at a concentration of 13 mmole/mole Ag, added to the melt before the addition of any further compounds. Some of the variations were then dyed with the sensitizing dye D-II, added from methanol solution. The fragmentable electron donor compounds were then added to the emulsion melts at 40° C. and coatings were prepared and tested as described in Example 1 except that the additional gelatin used to prepare the coatings described in Table VIII was deionized gelatin. Also, the dyed coatings were tested for their response to a spectral exposure as described in Example 3.

Assay [4] is described as follows: Example 8: spectral sensitivity, cubic emulsion C-2. To be noted: dye II 0.40 x10^-3, dyed control=100. As to the method:
as §2, §3

A short description of assay [5]: Example 11: photographic sensitivity and fog, color format, blue sensitized emulsion T-2. The note with it: for Photographic Sensitivity SWR2B: control=100. As to the method: The AgBrI tabular silver halide emulsion T-2 from Example 3 was optimally chemically and spectrally sensitized by adding NaSCN, 1.07 mmole of the blue sensitizing dye D-I per mole of silver, Na3 Au(S2 O3)2 ·2H2 O, Na2 S2 O3 ·5H2 O, and a benzothiazolium finish modifier and then subjecting the emulsion to a heat cycle to 65° C. The hydroxybenzene, 2,4-disulfocatechcol (HB3) at a concentration of 13×10^-3 mole/mole Ag was added to the emulsion melt before the start of the chemical sensitization procedure. This chemically sensitized emulsion was then used to prepare the experimental coating variations given in Table X. For all the variations in Table X, the antifoggant and stabilizer tetraazaindene (TAI) was added to the emulsion melt in an amount of 1.75 g/mole Ag before any further addenda. The fragmentable two-electron donors S-3, S-9, S-6, or S-8 were then added to the emulsion melt.
The melts were prepared for coating by adding additional water, deionized gelatin and coating surfactants. Coatings were prepared by combining the emulsion melts with a melt containing deionized gelatin and an aqueous dispersion of the cyan-forming color coupler CC-1 and coating the resulting mixture on acetate support. The final coatings contained Ag at 0.81 g/m^2, coupler at 1.61 g/m^2, and gelatin at 3.23 g/m^2. The coatings were overcoated with a protective layer containing gelatin at 1.08 g/m^2, coating surfactants, and a bisvinylsulfonylmethyl ether as a gelatin hardening agent. The structure of the color coupler CC-1 is given below: [drawing 120]
For photographic evaluation, each of the coating strips was exposed for 0.01 sec to a 3000K color temperature tungsten lamp filtered to give an effective color temperature of 5500K and further filtered through a Kodak Wratten filter number 2B, and a step wedge ranging in density from 0 to 4 density units in 0.20 density steps. This exposure gives light absorbed mainly by the blue sensitizing dye. The exposed film strips were developed for 31/4 minutes in Kodak C-41 color developer. SWR2B, relative sensitivity for this filtered exposure, was evaluated at a cyan density of 0.15 units above fog.
The AgBrI tabular emulsion T-2 as described in Example 3 was sensitized as described in Example 10 except that the hydroxybenzene HB3 was added at the completion of the chemical sensitization procedure. For all the variations in Table XI, the antifoggant and stabilizer tetraazaindene (TAI) was added to the emulsion melt in an amount of 1.75 g/mole Ag before any further addenda. The fragmentable two-electron donors S-12, S-14, S-13, or S-11 were then added to the emulsion melt. The melts were then coated and tested as described in Example 10.

Where [6] appears, read: 0.0022 x10^-3 mole/mole Ag, dye II 0.86 x10^-3.
[7] abbreviates: 0.022 x10^-3 mole/mole Ag, dye I 0.91 x10^-3.
Where [8] appears, read: 0.007 x10^-3 mole/mole Ag, dye II 0.86 x10^-3.
Where [9] appears, read: 0.07 x10^-3 mole/mole Ag, dye I 0.91 x10^-3.
The mark [10] stands for this setting: 0.16 x10^-3 mol/mol Ag, no dye, control=100.

Counter-ions that a name gives are not always drawn.

For `CCSCCN(c1ccc(C)cc1)[C@@H](C)C(=O)[O-].[Na+]` [Compound S-3, N-(4-Methylphenyl)-N-(2-ethylthio-ethyl)alanine sodium salt], the Fog amounted to 0.05 in assay [1] (0.011 x10^-3 mole/mole Ag), 0.08 in assay [1] (0.022 x10^-3 mole/mole Ag) and 0.22 in assay [1] (0.044 x10^-3 mole/mole Ag). Besides, the S365 in assay [1] (0.011 x10^-3 mole/mole Ag) stood at 118; in assay [1] (0.022 x10^-3 mole/mole Ag) it was 132; in assay [1] (0.044 x10^-3 mole/mole Ag), 129. In addition, the values for the Sλ in assay [2] (setting [6]) and in assay [2] (setting [7]) were 166 and 120, respectively.
Consider `CCSCCN(c1ccc(C)cc1)C(CC(=O)O)C(=O)O` (stereo not shown) [Compound S-8], for which the Fog in assay [1] (0.022 x10^-3 mole/mole Ag) came out at 0.08; in assay [1] (0.07 x10^-3 mole/mole Ag) it was 0.13. In addition, the S365 in assay [1] (0.022 x10^-3 mole/mole Ag) was 126; in assay [1] (0.07 x10^-3 mole/mole Ag), 135. For the same compound, the Sλ in assay [2] (setting [6]) is 141; in assay [2] (setting [8]) it was 166; in assay [2] (setting [7]), 112; in assay [2] (setting [9]), 112.
Consider `CCSCCN(c1ccccc1)C(C)C(=O)O` (stereo not shown) [Compound S-9, N-(Phenyl)-N-(2-thioethyl-ethyl)alanine sodium salt], for which the Fog in assay [3] (0.005 x10^-3 mol/mol Ag, dye II 0.44 x10^-3) was 0.18; in assay [3] (0.016 x10^-3 mol/mol Ag, dye II 0.44 x10^-3) it was 0.21; in assay [3] (0.05 x10^-3 mol/mol Ag, no dye) it was 0.07; in assay [3] (0.16 x10^-3 mol/mol Ag, no dye) it was 0.07. Besides, the S365 is 162 in assay [3] (0.005 x10^-3 mol/mol Ag, dye II 0.44 x10^-3, dyed control 105); 191 in assay [3] (0.016 x10^-3 mol/mol Ag, dye II 0.44 x10^-3, dyed control 105); 229 in assay [3] (0.05 x10^-3 mol/mol Ag, no dye, control=100); 234 in assay [3] (setting [10]). In addition, in assay [3], the “sensitivity increase” value is recorded as “approximately a factor of two”. The Sλ in assay [4] (0.005 x10^-3 mol/mol Ag) amounted to 159; in assay [4] (0.016 x10^-3 mol/mol Ag), 195; in assay [2] (setting [6]), 162; in assay [2] (setting [8]) it was 141; in assay [2] (setting [7]) it was 126; in assay [2] (setting [9]), 138.
As for `CCSCCN(c1ccc(C(=O)O)cc1)C(C)C(=O)O` (stereo not shown) [Compound S-11], the Fog is 0.14 in assay [3] (0.05 x10^-3 mol/mol Ag, dye II 0.44 x10^-3); 0.16 in assay [3] (0.16 x10^-3 mol/mol Ag, dye II 0.44 x10^-3); 0.07 in assay [3] (0.16 x10^-3 mol/mol Ag, no dye); 0.07 in assay [3] (0.50 x10^-3 mol/mol Ag, no dye); 0.10 in assay [5] (0.22 x10^-3 mol/molAg); 0.09 in assay [5] (0.44 x10^-3 mol/molAg). For the same compound, the S365 in assay [3] (0.05 x10^-3 mol/mol Ag, dye II 0.44 x10^-3, dyed control 105) was 162; in assay [3] (0.16 x10^-3 mol/mol Ag, dye II 0.44 x10^-3, dyed control 105) it was 186; in assay [3] (setting [10]), 219; in assay [3] (0.50 x10^-3 mol/mol Ag, no dye, control=100), 234. Moreover, in assay [3], the “sensitivity increase” value is “approximately a factor of two”. In addition, the Sλ is 159 in assay [4] (0.05 x10^-3 mol/mol Ag) and 186 in assay [4] (0.16 x10^-3 mol/mol Ag). Also, the “Photographic Sensitivity SWR2B” value in assay [5] (0.22 x10^-3 mol/molAg) is given as 166; in assay [5] (0.44 x10^-3 mol/molAg) it was 178.
Consider `CCSCCN(c1ccc(Cl)cc1)C(C)C(=O)O` (stereo not shown) [Compound S-12, N-(4-Chlorophenyl)-N-(2-thioethyl-ethyl)alanine sodium salt], for which the Fog amounted to 0.11 in assay [5] (0.22 x10^-3 mol/molAg) and 0.16 in assay [5] (0.44 x10^-3 mol/molAg). Further, the “Photographic Sensitivity SWR2B” value in assay [5] (0.22 x10^-3 mol/molAg) is reported as 191; in assay [5] (0.44 x10^-3 mol/molAg), 204.
The matching figures for `CCSCCN(c1cccc(C(N)=O)c1)C(C)C(=O)O` (stereo not shown) [Compound S-13]: 0.10, 0.16, 204 and 209.
On to `CCSCCN(c1ccccc1)C(CC(=O)O)C(=O)O` (stereo not shown) [Compound S-14], for which, in assay [5] (0.22 x10^-3 mol/molAg), the Fog was 0.09 and the “Photographic Sensitivity SWR2B” value is 170. Moreover, in assay [5] (0.44 x10^-3 mol/molAg), the Fog is 0.09 and the “Photographic Sensitivity SWR2B” value is recorded as 178.
